In patent US20250367162A1, “Additive for Food, Drink and Pharmaceutical Products to Improve Health and Well-Being” (RB2 Enterprises, LLC, priority 2021, published 2025):

Key:
[1] = on its own; share of consumed Dihydromyricetin that enters a person's bloodstream; cited from earlier work
stability / shelf-life = type: physicochemical
[2] = bioavailability (share of consumed substance entering the bloodstream); type: in vivo; conditions: mixed with an effective amount of a hydrogenated substance such as Erythritol
Protocol: For use as an additive 50 that accomplishes the various objectives and which provides the aspects of the present invention, the present inventor solved several problems with regard to use of Dihydromyricetin 14a. One such problem is that Dihydromyricetin 14a, on its own, has a solubility of approximately 0.2 mg per ml of fluid, which is very low. Because the solubility of Dihydromyricetin 14a is so low, it cannot be effectively utilized as a medicine or supplement, despite the well known benefits of this flavonoid 14 for people (as well as certain animals). Another issue with Dihydromyricetin 14a is that, on its own, it has a bioavailability of approximately four percent, meaning that only about four percent of consumed Dihydromyricetin 14a enters a person's bloodstream and stays long enough to be biologically effective for product user 56. […] Mixing an effective amount of one or more solvents 60, such as a bicarbonate substance 60a or an alcohol solvent 60b, increases the solubility of Dihydromyricetin 14a from approximately 0.2 mg per ml of fluid to approximately 114 mg per ml of fluid.

O=C1c2c(O)cc(O)cc2O[C@H](c2cc(O)c(O)c(O)c2)[C@H]1O [Dihydromyricetin 14a, Dihydromyricetin]
bioavailability [1]: approximately four | shelf-life of Dihydromyricetin (stability / shelf-life; mixed with an effective amount of Erythritol and/or other hydrogenated substances): extends the Dihydromyricetin 14a shelf-life | stability (stability / shelf-life; on its own, light sensitivity and other shelf-life limitations): poor stability | bioavailability of Dihydromyricetin [2]: greatly improves the bioavailability
